# Reference: US20220257793A1, “COMPOSITIONS AND USE OF ENGINEERED MYOGENIC CELLS” (Institute of Zoology, Chinese Academy of Sciences, priority 2019, published 2022)
# Columns and labels:
# [1] = system: LTS progenitors; assay: Cell counts after drug treatment, LTS; format: cell-based, human
# Experimental: (§1) HSKM, TS and LTS cells were seeded in gelatin-coated six-well plates at a density of 4×10^4 cells/well and maintained with culture medium. One day after seeding, culture medium was replaced with culture medium containing either paraquat (Sigma-Aldrich; 2 μM), hydrogen peroxide (ICM Pharma; 100 μM), DTT (Thermo Fisher; 250 μM), 2-deoxyglucose (Sigma-Aldrich; 2.5 mM), KC7F2 (Sigma-Aldrich; 10 μM) or DMSO/H2O controls. For ROS modulators, cells were allowed to grow for 72 hours post-treatment, while for 2-DG, cells were allowed to grow for eight days post-treatment.
# [2] = system: TS progenitors; assay: Cell counts after drug treatment, TS; format: cell-based, human
# Experimental: as §1
# [3] = system: HSKM progenitors; assay: Cell counts after drug treatment, HSKM; format: cell-based, human
# Experimental: as §1
# [4] = system: LTS progenitors; assay: let-7 microRNA mimic transfection; format: cell-based, human
# Experimental: HSKM, TS and LTS cells were seeded in gelatin-coated six-well plates at a density of 4×10^4 cells/well and maintained with culture medium. PEI (14.5 ng/μL), mature Mirvana hsa-let-7a-5p (#4464066; Assay ID: MC10050; Thermo Fisher) and/or hsa-let-7b-5p (#4464066; Assay ID: MC11050; Thermo Fisher) mimic (0.25 μM) or Cy5-conjugated scramble RNAi control, was mixed with serum-free DMEM to a total volume of 200 μL. This mixture was transfected onto each well.
# [5] = system: LTS progenitors; assay: qRT-PCR after ROS-modulating drugs in LTS progenitors; format: cell-based, human
# Experimental: as §1, with “RNA was extracted by TRIzol (Thermo Fisher) and reverse transcribed with Superscript III (Thermo Fisher) according to manufacturer's instructions. The resulting cDNA was diluted 5× before performing qPCR with KAPA SYBR FAST on ABI Prism 7900HT (Applied Biosystems) according to manufacturers' instructions. HSKM,” for “HSKM,”
# [6] = system: mitochondrial ROS in HSKM, TS and LTS cells; assay: Flow cytometry oxidation state assay with mito-Grx1-roGFP2; format: cell-based, human; conditions: all progenitor types (HSKM, TS, LTS); H2O2 100 μM, DTT 250 μM
# Experimental: HSKM, TS and LTS cells were transduced with the roGFP2 retrovirus for 48 hours. Cells were allowed to expand to 15-cm tissue culture plates and then harvested for fluorescence-activated cell sorting for roGFP2+ cells using the FITC channel with a BD FACS Aria II cell sorter. HSKM, TS and LTS cells were seeded in gelatin-coated six-well plates at a density of 4×10^4 cells/well and maintained with culture medium. […] Cells were allowed to grow for 48 hours and then harvested for flow cytometry using a BD LSR Fortessa x-20 analyzer. HSKM, TS and LTS cells were used as non-fluorescent gating controls for each of their respective roGFP2+ counterparts. For each cell line, FSC, SSC, 405 nm/AmCyan and 488 nm/FITC channels were captured. FCS files were exported from FACS Diva and imported into FlowJo, where raw-value CSV files were exported. Raw values of 405 nm/488 nm ratio was calculated and then averaged for each cell line and condition.
# [7] = system: diabetic nude mice; assay: Transplantation of iMusc-Insm cells into streptozotocin diabetic nude mice; format: in vivo, mouse; conditions: after streptozotocin treatment, before transplantation
# Experimental: To determine whether differentiated iMusc-Insm cells were able to produce bioactive insulin and treat diabetes mellitus in vivo, 5×10^6 iMusc-Insm and iMusc-neo myoblast cells were transplanted by direct skeletal muscle injection into 6-8 week old male athymic nude mice (B6.Cg-Foxn1^nn/J; Jackson Labs) that have received daily intraperitoneal injections of 40 mg/kg streptozotocin (Tocris Bioscience), dissolved in 0.1M citrate buffer (pH 4.5), for 5 consecutive days, to model diabetes mellitus. Glycemia and insulinemia were measured in fed mice every 3-7 days, for 3 weeks after injection of the cells. Blood glucose was measured using a glucometer (Roche), while plasma insulin was measured by ELISA (Mercodia).
Compound,progenitor proliferation (cell counts) [1],progenitor proliferation (cell counts) [2],progenitor proliferation (cell counts) [3],also measured
O=CC[C@@H](O)[C@H](O)[C@H](O)CO [2-deoxyglucose],mild but significant decreases,mild but significant decreases,mild but significant decreases,
hsa-let-7a-5p,,,,"effect on proliferation rate (cell counts) [4]: neither let-7a, nor let-7b, nor both, had any effect"
O=S(=O)(NCCSSCCNS(=O)(=O)c1cc(Cl)ccc1Cl)c1cc(Cl)ccc1Cl [KC7F2],significantly suppressed LTS progenitor proliferation,no significant effects,no significant effects,
"O[C@H](CS)[C@H](O)CS (racemic) [DTT, dithiothreitol]",significant suppression of LTS progenitor proliferation in a dose-dependent fashion,no significant effects,no significant effects,HIF1A targets and glycolysis genes mRNA [5]: could suppress; OxPhos mRNA levels [5]: failed to perturb; effect on mtROS [6]: most reliably reduced mtROS
hsa-let-7b-5p,,,,"effect on proliferation rate (cell counts) [4]: neither let-7a, nor let-7b, nor both, had any effect"
"OO [H2O2, hydrogen peroxide]",significant suppression of LTS progenitor proliferation in a dose-dependent fashion,no significant effects,no significant effects,HIF1A targets and glycolysis genes mRNA [5]: could suppress; OxPhos mRNA levels [5]: failed to perturb; effect on mtROS [6]: most reliably increased mtROS
CN(N=O)C(=O)N[C@H]1C(O)O[C@H](CO)[C@@H](O)[C@@H]1O (mixture of isomers) [streptozotocin],,,,fed glucose levels [7]: ~346 mg/dL; fed insulin levels [7]: ~63 μIU/ml
